Laboratory results: publication PMC6112376, “Comprehensive Analyses and Prioritization of Tox21 10K Chemicals Affecting Mitochondrial Function by in-Depth Mechanistic Studies” (Environmental Health Perspectives, 2018)
Like-named read-outs stand apart in the source and are kept apart here.

Experiments:
[1] = test system: HepG2 cells; experiment: ROS-Glo hydrogen peroxide (ROS) assay; type: cell-based, human; details: Homo sapiens, HepG2; 2 h treatment; mean±SD of three experiments; read-out: ROS (HepG2) EC50
[2] = test system: HepG2 cells; experiment: Intracellular ATP content (cell viability) assay; type: cell-based, human; details: Homo sapiens, HepG2, 40 h treatment, mean±SD of three experiments
[3] = test system: HeLa cells expressing YFP-Parkin; experiment: Parkin translocation assay; type: cell-based, human; details: HeLa cells stably expressing YFP-Parkin; treated for 2 h
[4] = test system: Nrf2/ARE (ARE-bla HepG2 cells); experiment: ARE β-lactamase reporter gene assay; type: cell-based, human; details: 16 h incubation, mean±SD of three experiments; for EC50: Homo sapiens, HepG2, read-out: ARE (HepG2) EC50
[5] = test system: rat primary hepatocytes; experiment: MMP assay in rat primary hepatocytes; details: for Rat hepatocytes (efficacy) (MMP): % of positive control, mean±SD of three experiments; for IC50: Rattus norvegicus, Hepatocyte; for MMP assays efficacy (%) Rat Hepatocytes: mean ± SD of three experiments
[6] = test system: HepG2 cells; experiment: cells; details: Homo sapiens; for Emax: HepG2, read-out: MMP assays efficacy (%) HepG2
[7] = test system: p53 (p53-bla HCT-116 cells); experiment: p53 β-lactamase reporter gene assay; type: cell-based, human; details: 16 h incubation, mean±SD of three experiments
[8] = test system: hNSC; experiment: MMP assay in human neural stem cells (hNSC); type: cell-based; details: Homo sapiens, Neural stem cell; 1 h treatment; fresh re-sourced stocks; mean±SD of three experiments; read-out: hNSC IC50 (MMP)
[9] = test system: Caenorhabditis elegans (Bristol N2); experiment: C. elegans larval development and growth assay
[10] = test system: Caenorhabditis elegans strain PE255; experiment: In vivo C. elegans ATP status assay; details: for minimal effective concentration: Caenorhabditis elegans, read-out: LEC LUM: lowest effect concentration for luminescence, a measure of nematode ATP content
[11] = test system: HepG2 cells; details: cited from earlier work; for IC50: read-out: MMP assays IC50 (µM) qHTS-HepG2
[12] = test system: isolated rat liver mitochondria; experiment: Oxygen consumption, Clark-type oxygen electrode; type: biochemical; details: for I-ADP, % of control (O2 consumption rate): glutamate/malate driven state 3 respiration; for I-ADP, % of control (O2 consumption rate) / I-sub, % of control (O2 consumption rate) / II-ADP, % of control (O2 consumption rate) / II-sub, % of control (O2 consumption rate): isolated rat liver mitochondria; for I-sub, % of control (O2 consumption rate): glutamate/malate driven state 4 respiration; for II-ADP, % of control (O2 consumption rate): succinate-driven state 3 respiration; for II-sub, % of control (O2 consumption rate): succinate-driven state 4 respiration; for Potential Mechanism: mitochondrial respiration in isolated rat liver mitochondria, Clark type oxygen electrode, over tested concentrations
[13] = 5 mM glucose, read-out: ATP (HepG2, glucose) IC50
[14] = 10 mM galactose, read-out: ATP (HepG2, galactose) IC50
[15] = 1 h, read-out: Rat hepatocytes IC50 (MMP)
[16] = HepG2, 1 h, read-out: HepG2 IC50 Galactose (MMP)
[17] = HepG2, 1 h, read-out: HepG2 IC50 Glucose (MMP)
[18] = read-out: MMP assays IC50 (µM) Rat Hepatocytes
[19] = HepG2, read-out: MMP assays IC50 (µM) HepG2

CCc1cc(Cc2cc(CC)cc(C(C)(C)C)c2O)c(O)c(C(C)(C)C)c1
EC50 [1]: 29.6 ± 4.08 µM
IC50 [2, 13]: 21.6 ± 13.8 µM
IC50 [2, 14]: 29.8 ± 7.25 µM
Parkin recruitment [3]: Inactive
ARE (HepG2) EC50 [4]: Inactive
Rat hepatocytes (efficacy) (MMP) [5]: −103±17.9%
IC50 [5, 15]: 29.9 ± 7.25 µM
IC50 [6, 16]: 6.3 ± 0.43 µM
IC50 [6, 17]: 5.42 ± 0.62 µM
p53 (HCT-116) EC50 [7]: Inactive
IC50 [8]: 1.28 ± 0.56 µM
LEC (lowest effect concentration), larval growth assay ([9]; 48 h exposure): ≤ 10 µM

Cc1cc(O)c2c(c1)C(=O)c1cc(O)cc(O)c1C2=O [Emodin]
EC50 [1]: 5.24 ± 1.72 µM
LUM: mean difference in luminescence (ATP content) relative to plate controls ([10]; 0.5 µM): 0.08724
LUM: mean difference in luminescence (ATP content) relative to plate controls ([10]; 1 µM): 0.09663
LUM: mean difference in luminescence (ATP content) relative to plate controls ([10]; 5 µM): 0.2419
LUM: mean difference in luminescence (ATP content) relative to plate controls ([10]; 10 µM): 0.4641
LUM: mean difference in luminescence (ATP content) relative to plate controls ([10]; 25 µM): 0.5201
LUM: mean difference in luminescence (ATP content) relative to plate controls ([10]; 50 µM): 0.576
LUM: mean difference in luminescence (ATP content) relative to plate controls ([10]; 75 µM): 0.5532
LUM: mean difference in luminescence (ATP content) relative to plate controls ([10]; 100 µM): 0.7699
effect on ATP content (in words) ([10]; 0.5–100μM, 24 h exposure): statistically significant decreases in ATP content
minimal effective concentration [10]: 25 µM
IC50 [2, 13]: 43 ± 4.95 µM
IC50 [2, 14]: 39.7 ± 2.69 µM
MMP assays efficacy (%) qHTS-HepG2 [11]: -97±5%
IC50 [11]: 1.33 ± 0.78 µM
Parkin recruitment [3]: Active
EC50 [4]: 10.5 ± 1.45 µM
Rat hepatocytes (efficacy) (MMP) [5]: −106±9.55%
IC50 [5, 15]: 15.8 ± 1.07 µM
IC50 [5, 18]: 6.28 ± 4.57 µM
MMP assays efficacy (%) Rat Hepatocytes [5]: -101±17%
IC50 [6, 16]: 8 ± 1.44 µM
IC50 [6, 17]: 6.14 ± 1.29 µM
IC50 [6, 19]: 2.51 µM
Emax [6]: 104%
EC50 ([7]; Homo sapiens): 14.9 ± 6.5 µM
IC50 [8]: 1.09 ± 0.56 µM
I-ADP, % of control (O2 consumption rate) ([12]; 0.16 µM): 93 (34.5) % of control
I-sub, % of control (O2 consumption rate) ([12]; 0.16 µM): 102 (11.0) % of control
II-ADP, % of control (O2 consumption rate) ([12]; 0.16 µM): 94 (59.1) % of control
II-sub, % of control (O2 consumption rate) ([12]; 0.16 µM): 110 (20.4) % of control
I-ADP, % of control (O2 consumption rate) ([12]; 0.8 µM): 98 (36.6) % of control
I-sub, % of control (O2 consumption rate) ([12]; 0.8 µM): 120 (13.0) % of control
II-ADP, % of control (O2 consumption rate) ([12]; 0.8 µM): 94 (59.4) % of control
II-sub, % of control (O2 consumption rate) ([12]; 0.8 µM): 114 (21.1) % of control
I-ADP, % of control (O2 consumption rate) ([12]; 4 µM): 110 (41.0) % of control
I-sub, % of control (O2 consumption rate) ([12]; 4 µM): 232 (25.1) % of control
II-ADP, % of control (O2 consumption rate) ([12]; 4 µM): 84 (53.2) % of control
II-sub, % of control (O2 consumption rate) ([12]; 4 µM): 144 (26.8) % of control
I-ADP, % of control (O2 consumption rate) ([12]; 20 µM): 144 (53.6) % of control
I-sub, % of control (O2 consumption rate) ([12]; 20 µM): 540 (58.3) % of control
II-ADP, % of control (O2 consumption rate) ([12]; 20 µM): 81 (51.3) % of control
II-sub, % of control (O2 consumption rate) ([12]; 20 µM): 198 (36.7) % of control
I-ADP, % of control (O2 consumption rate) ([12]; 100 µM): 59 (30.1) % of control
I-sub, % of control (O2 consumption rate) ([12]; 100 µM): 165 (35.4) % of control
II-ADP, % of control (O2 consumption rate) ([12]; 100 µM): 33 (19.6) % of control
II-sub, % of control (O2 consumption rate) ([12]; 100 µM): 67 (23.4) % of control
Potential Mechanism [12]: Uncoupler at low concentrations (4-20 µM), and Uncoupler + inhibitor at high concentrations (100 µM)
EXT: mean difference in nematode size relative to plate controls ([9]; 0.5 µM): 0.07129
EXT: mean difference in nematode size relative to plate controls ([9]; 1 µM): 0.003832
EXT: mean difference in nematode size relative to plate controls ([9]; 5 µM): -0.0304
EXT: mean difference in nematode size relative to plate controls ([9]; 10 µM): 0.01596
EXT: mean difference in nematode size relative to plate controls ([9]; 25 µM): 0.07038
EXT: mean difference in nematode size relative to plate controls ([9]; 50 µM): 0.04376
EXT: mean difference in nematode size relative to plate controls ([9]; 100 µM): -0.01346
effect on larval growth (in words) ([9]; 0.5–100μM, 48 h exposure): did not affect growth

NNc1nc(-c2ccc(N)cc2)cs1 [2-Hydrazino-4-(4-aminophenyl) thiazole]
EC50 [1]: 25.4 ± 3.24 µM
LUM: mean difference in luminescence (ATP content) relative to plate controls ([10]; 0.5 µM): 0.02471
LUM: mean difference in luminescence (ATP content) relative to plate controls ([10]; 1 µM): 0.06159
LUM: mean difference in luminescence (ATP content) relative to plate controls ([10]; 5 µM): 0.05233
LUM: mean difference in luminescence (ATP content) relative to plate controls ([10]; 10 µM): 0.08412
LUM: mean difference in luminescence (ATP content) relative to plate controls ([10]; 25 µM): 0.4284
LUM: mean difference in luminescence (ATP content) relative to plate controls ([10]; 50 µM): 0.3261
LUM: mean difference in luminescence (ATP content) relative to plate controls ([10]; 75 µM): 0.5564
LUM: mean difference in luminescence (ATP content) relative to plate controls ([10]; 100 µM): 0.6002
minimal effective concentration [10]: 25 µM
IC50 [2, 13]: 59.5 ± 23.5 µM
IC50 [2, 14]: 60.8 ± 6.99 µM
MMP assays efficacy (%) qHTS-HepG2 [11]: -83±12%
IC50 [11]: 0.06 ± 0.02 µM
Parkin recruitment [3]: Inactive
EC50 [4]: 10.5 ± 8.1 µM
Rat hepatocytes (efficacy) (MMP) [5]: −50.5±1.77%
IC50 [5, 15]: 19.8 ± 11.5 µM
IC50 [5, 18]: 3.55 ± 3.86 µM
MMP assays efficacy (%) Rat Hepatocytes [5]: -67±14%
IC50 [6, 16]: 18.5 ± 2.55 µM
IC50 [6, 17]: 15.3 ± 1.76 µM
IC50 [6, 19]: 0.4 µM
Emax [6]: 85%
p53 (HCT-116) EC50 [7]: Inactive
IC50 [8]: 1.76 ± 0.57 µM
I-ADP, % of control (O2 consumption rate) ([12]; 100 µM): 105 (55.7) % of control
I-sub, % of control (O2 consumption rate) ([12]; 100 µM): 109 (14.6) % of control
II-ADP, % of control (O2 consumption rate) ([12]; 100 µM): 101 (68.1) % of control
II-sub, % of control (O2 consumption rate) ([12]; 100 µM): 98 (21.3) % of control
Potential Mechanism [12]: Inactive
EXT: mean difference in nematode size relative to plate controls ([9]; 0.5 µM): 0.05389
EXT: mean difference in nematode size relative to plate controls ([9]; 1 µM): 0.002943
EXT: mean difference in nematode size relative to plate controls ([9]; 5 µM): -0.00605
EXT: mean difference in nematode size relative to plate controls ([9]; 10 µM): 0.1893
EXT: mean difference in nematode size relative to plate controls ([9]; 25 µM): 0.2089
EXT: mean difference in nematode size relative to plate controls ([9]; 50 µM): 0.1347
EXT: mean difference in nematode size relative to plate controls ([9]; 75 µM): 0.3557
EXT: mean difference in nematode size relative to plate controls ([9]; 100 µM): 0.3701
minimal effective concentration ([9]; Caenorhabditis elegans, read-out: LEC EXT: lowest effect concentration for extinction, a measure of nematode size): 25 µM
